Measurements taken from US20200392158A1, “INHIBITORS OF LEUCINE RICH REPEAT KINASE 2” (GLAXOSMITHKLINE INTELLECTUAL PROPERTY DEVELOPMENT LIMITED, priority 2017, published 2020).

What follows are compounds tested against T1, LRRK2 kinase in SH-SY5Y cells over-expressing recombinant full length LRRK2 (Homo sapiens, UniProt Q5S007) (assay: Recombinant cellular LRRK2 AlphaScreen assay (LRRK2 Ser935 phosphorylation)). Conditions: 60 min.
T1 construct: A BacMam virus expressing full length recombinant LRRK2 was purchased from Invitrogen; host or cells: SH-SY5Y human neuroblastoma cells transduced with BacMam LRRK2 virus
T1 sequence (Q5S007 whole entry): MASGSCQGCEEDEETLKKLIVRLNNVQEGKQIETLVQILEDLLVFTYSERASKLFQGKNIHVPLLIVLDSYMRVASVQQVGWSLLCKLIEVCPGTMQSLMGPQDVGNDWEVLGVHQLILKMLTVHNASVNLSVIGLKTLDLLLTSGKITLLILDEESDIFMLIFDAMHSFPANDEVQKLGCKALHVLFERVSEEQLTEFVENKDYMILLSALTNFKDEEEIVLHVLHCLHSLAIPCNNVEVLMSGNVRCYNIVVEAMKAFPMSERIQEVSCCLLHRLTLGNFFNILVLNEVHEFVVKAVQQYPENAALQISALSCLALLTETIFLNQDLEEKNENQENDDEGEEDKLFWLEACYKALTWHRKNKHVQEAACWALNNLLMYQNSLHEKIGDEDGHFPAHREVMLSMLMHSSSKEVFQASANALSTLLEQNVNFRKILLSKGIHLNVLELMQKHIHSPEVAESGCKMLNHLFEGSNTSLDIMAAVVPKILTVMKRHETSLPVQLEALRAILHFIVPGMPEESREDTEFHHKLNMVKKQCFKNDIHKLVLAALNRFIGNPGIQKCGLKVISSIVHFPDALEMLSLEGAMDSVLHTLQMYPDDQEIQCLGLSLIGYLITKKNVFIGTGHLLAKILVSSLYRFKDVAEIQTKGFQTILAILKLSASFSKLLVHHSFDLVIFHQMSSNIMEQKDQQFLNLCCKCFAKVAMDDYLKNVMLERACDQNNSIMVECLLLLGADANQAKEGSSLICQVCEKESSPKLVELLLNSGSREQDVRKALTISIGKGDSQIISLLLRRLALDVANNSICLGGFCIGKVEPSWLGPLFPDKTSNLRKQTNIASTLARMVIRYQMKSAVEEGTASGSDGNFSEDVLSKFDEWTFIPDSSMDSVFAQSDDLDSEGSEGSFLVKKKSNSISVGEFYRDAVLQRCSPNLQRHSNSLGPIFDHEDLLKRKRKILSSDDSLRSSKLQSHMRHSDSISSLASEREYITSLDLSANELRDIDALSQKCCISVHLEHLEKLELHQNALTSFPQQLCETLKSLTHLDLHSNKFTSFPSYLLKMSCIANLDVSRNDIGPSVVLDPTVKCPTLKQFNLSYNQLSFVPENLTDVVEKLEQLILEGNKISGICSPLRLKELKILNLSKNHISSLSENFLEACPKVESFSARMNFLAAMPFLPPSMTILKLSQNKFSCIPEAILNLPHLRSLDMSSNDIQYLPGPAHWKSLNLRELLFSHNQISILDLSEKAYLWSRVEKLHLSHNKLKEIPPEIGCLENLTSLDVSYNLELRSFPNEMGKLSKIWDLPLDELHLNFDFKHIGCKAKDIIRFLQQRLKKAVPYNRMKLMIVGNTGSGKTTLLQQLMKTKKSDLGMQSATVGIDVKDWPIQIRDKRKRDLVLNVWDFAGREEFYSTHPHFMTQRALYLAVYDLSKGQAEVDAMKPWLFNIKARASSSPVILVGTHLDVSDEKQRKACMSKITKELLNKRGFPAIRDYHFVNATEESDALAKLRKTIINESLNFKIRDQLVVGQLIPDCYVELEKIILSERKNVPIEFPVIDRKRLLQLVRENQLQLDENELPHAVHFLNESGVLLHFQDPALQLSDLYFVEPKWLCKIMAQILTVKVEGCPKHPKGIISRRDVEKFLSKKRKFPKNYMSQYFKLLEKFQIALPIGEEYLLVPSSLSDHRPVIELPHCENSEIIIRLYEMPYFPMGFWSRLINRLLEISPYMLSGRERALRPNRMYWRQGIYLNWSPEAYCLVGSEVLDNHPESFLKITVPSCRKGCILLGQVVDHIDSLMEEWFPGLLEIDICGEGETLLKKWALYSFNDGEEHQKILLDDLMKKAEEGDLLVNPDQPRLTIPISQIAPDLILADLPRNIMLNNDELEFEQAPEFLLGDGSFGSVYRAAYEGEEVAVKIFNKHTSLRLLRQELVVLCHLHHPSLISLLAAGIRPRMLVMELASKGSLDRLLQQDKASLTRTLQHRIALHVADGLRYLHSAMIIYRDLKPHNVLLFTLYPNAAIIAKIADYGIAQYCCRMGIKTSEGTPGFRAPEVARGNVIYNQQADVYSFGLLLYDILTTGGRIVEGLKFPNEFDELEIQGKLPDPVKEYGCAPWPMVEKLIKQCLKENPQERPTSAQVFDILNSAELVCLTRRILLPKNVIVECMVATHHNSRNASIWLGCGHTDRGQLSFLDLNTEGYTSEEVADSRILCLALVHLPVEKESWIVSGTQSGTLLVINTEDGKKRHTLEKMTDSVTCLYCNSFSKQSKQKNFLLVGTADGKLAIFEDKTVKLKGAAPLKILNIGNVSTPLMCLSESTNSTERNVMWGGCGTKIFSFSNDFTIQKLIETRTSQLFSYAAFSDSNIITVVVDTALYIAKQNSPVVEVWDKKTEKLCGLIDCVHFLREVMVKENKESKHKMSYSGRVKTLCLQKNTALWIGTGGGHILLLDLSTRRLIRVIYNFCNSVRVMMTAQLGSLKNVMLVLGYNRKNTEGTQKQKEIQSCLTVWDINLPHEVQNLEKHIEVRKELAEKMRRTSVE
Format: cell-based
Excerpt: b. Recombinant Cellular LRRK2 AlphaScreen Assay
To determine the activity of compounds against LRRK2 kinase in cells, the observed LRRK2 kinase-dependent modulation of LRRK2 Ser 935 phosphorylation (Dzamko et al., 2010, Biochem. J. 430: 405-413) was utilized to develop a quantitative 384 well plate-based immunoassay of LRRK2 Ser935 phosphorylation in the human neuroblastoma cell line SH-SY5Y, engineered to over-express recombinant full length LRRK2 protein.
A BacMam virus expressing full length recombinant LRRK2 was purchased from Invitrogen and amplified by inoculation of SF-9 cells at MOI 0.3 for 4-5 days in Sf-900 III SFM medium supplemented with 3% fetal bovine serum. Infected cell cultures were then centrifuged at 2000 g for 20 minutes, viral supernatant titer determined by anti-gp64 plaque assay and stored at 4° C.
Affinity-purified anti-phospho LRRK2 Ser935 sheep polyclonal antibody (Dzamko et al., 2010, Biochem. J. 430: 405-413) was biotinylated by standard methods (PerkinElmer). Anti-LRRK2 rabbit polyclonal antibody was purchased from Novus Biologicals. AlphaScreen Protein A IgG Kit (including acceptor and donor beads) was purchased from Perkin Elmer.
SH-SY5Y cells were grown in DMEM/F12 medium with 10% dialysed fetal bovine serum and harvested by treatment with 0.5% trypsin-EDTA for 5 minutes at 37° C. followed by centrifugation at 1000 rpm for 4 minutes. The cell pellet was resuspended in Opti-MEM reduced serum media (Invitrogen) at 200,000 cells/ml and mixed with the BacMam LRRK2 virus at M01=50. 50 μl cell solutions were then dispensed to each well of a 384-well plate and incubated at 37° C., 5% CO2 for 24 hours.
Compounds were prepared at 10× final assay concentration as 11 point 1 in 4 serial I dilutions in Opti-MEM reduced serum medium (Invitrogen 31985070) containing 1% DMSO. On the day of assay, 5.5 μl of the compound solutions were transferred from the compound plate to the cell assay plate to achieve a top final assay concentration of 10 uM. DMSO (0.1% final assay concentration) was added to column 6 and 2-(benzyloxy)-5-methyl-4-(1-methyl-1H-pyrazol-4-yl)-N-(pyridin-3-yl)benzamide (2 μM final assay concentration) was added to column 18 to serve as 0% and 100% inhibition controls, respectively.
Cells were incubated at 37° C., 5% CO2 for 60 minutes. The medium was then removed and cells lysed by addition of 20 μl of cell lysis buffer (Cell Signaling Technology) and incubation at 4° C. for 20 minutes. 10 μl of antibody/acceptor bead mix [(1/1000 biotinylated-pS935 LRRK2 antibody, 1/1000 total-LRRK2 antibody, 1/100 Acceptor beads in AlphaScreen detection buffer (25 mM Hepes (pH 7.4), 0.5% Triton X-100, 1 mg/ml Dextran 500 and 0.1% BSA)] was then added to each well and plates incubated for 2 hours at ambient temperature in the dark. 10 μl of donor beads solution (1/33.3 donor beads in AlphaScreen detection buffer) was then added to each well. Following incubation for a further 2 hours at ambient temperature in the dark, plates were read on an EnVision™ plate reader at emission 520-620 nm with excitation 680 nm. Dose response curve data was based on a sigmoidal dose-response model.

Compound | IC50
COC1CNc2nc(ncc2Cl)Nc2c(nn(C3CCC(C)CC3)c2C)OC1 (single isomer, unassigned) [E255, 14-Chloro-10-methoxy-4-methyl-5-(4-methylcyclohexyl)-8-oxa-2,5,6,12,16,17-hexaazatricyclo [11.3.1.0^3,7] heptadeca-1(16),3,6,13(17),14-pentaene] | ≤ 100 nM
Cc1c2c(nn1C1CCC(C)CC1)OCCCNc1nc(ncc1Cl)N2 (single isomer, unassigned) [E257, 14-Chloro-4-methyl-5-(4-methylcyclohexyl)-8-oxa-2,5,6,12,16,17-hexaazatricyclo[11.3.1.0^3,7]heptadeca-1(16),3,6,13 (17),14-pentaene] | ≤ 100 nM
COC1CNc2nc(ncc2Cl)Nc2c(nn(CC(F)(F)F)c2C)OC1 (single isomer, unassigned) [E269, 14-Chloro-10-methoxy-4-methyl-5-(2,2,2-trifluoroethyl)-8-oxa-2,5,6,12,16,17-hexaazatricyclo[11.3.1.0^3,7] heptadeca-1(16),3,6,13 (17),14-pentaene] | ≤ 100 nM
Cc1c2c(nn1C1CCC(C(F)(F)F)CC1)OCCCNc1nc(ncc1Cl)N2 (single isomer, unassigned) [E276, 14-Chloro-4-methyl-5-[4-(trifluoromethyl)cyclohexyl]-8-oxa-2,5,6,12,16,17-hexaazatricyclo[11.3.1.0^3,7] heptadeca-1(16),3,6,13(17),14-pentaene] | ≤ 100 nM
Cc1c2c(nn1C1CCC(C(F)(F)F)CC1)OCCC(C)Nc1nc(ncc1Cl)N2 (single isomer, unassigned) [E281, 4-Chloro-4,11-dimethyl-5-[4-(trifluoromethyl)cyclohexyl]-8-oxa-2,5,6,12,16,17-hexaazatricyclo[11.3.1.0^3,7] heptadeca-1(16),3,6,13(17),14-pentaene] | ≤ 100 nM
Cc1c2c(nn1C1CCOCC1)OCC(OC(F)F)CNc1nc(ncc1Cl)N2 (single isomer, unassigned) [E284, 14-Chloro-10-(difluoromethoxy)-4-methyl-5-(oxan-4-yl)-8-oxa-2,5,6,12,16,17-hexaazatricyclo[11.3.1.0^3,7] heptadeca-1(16),3,6,13(17),14-pentaene] | ≤ 100 nM
Cc1c2c(nn1C1CCCOC1)OCCCNc1nc(ncc1Br)N2 (single isomer, unassigned) [E288, 14-Bromo-4-methyl-5-(oxan-3-yl)-8-oxa-2,5,6, 12,16,17-hexaazatricyclo[11.3.1.0^3,7]heptadeca-1(16),3,6,13(17), 14-pentaene] | ≤ 100 nM

Continued, values first:

IC50 | Compound
≤ 100 nM | Cc1c2c(nn1C1CCOCC1F)OCCCNc1nc(ncc1Cl)N2 (single isomer, unassigned) [E233, 14-Chloro-5-(3-fluorooxan-4-yl)-4-methyl-8-oxa-2,5,6,12,16,17-hexaazatricyclo[11.3.1.0^3,7]heptadeca-1(16),3,6,13 (17),14-pentaene]
≤ 100 nM | COC1CCC(n2nc3c(c2C)Nc2ncc(Cl)c(n2)NCCCO3)CC1 (single isomer, unassigned) [E237, 14-Chloro-5-(4-methoxycyclohexyl)-4-methyl-8-oxa-2,5,6,12,16,17-hexaazatricyclo[11.3.1.0^3,7]heptadeca-1(16), 3,6,13(17),14-pentaene]
≤ 100 nM | COC1CCC(n2nc3c(c2C)Nc2ncc(Cl)c(n2)NCC(OC)CO3)CC1 (single isomer, unassigned) [E239, 14-Chloro-10-methoxy-5-(4-methoxycyclohexyl)-4-methyl-8-oxa-2,5,6,12,16,17-hexaazatricyclo [11.3.1. 0^3,7]heptadeca-1(16),3,6,13(17),14-pentaene]
≤ 100 nM | Cc1c2c(nn1C1CC3CCC(C1)O3)OCCC(C)Nc1nc(ncc1Cl)N2 (single isomer, unassigned) [E249, 14-Chloro-4,11-dimethyl-5-{8-oxabicyclo[3.2.1]octan-3-yl}-8-oxa-2,5,6,12,16,17-hexaazatricyclo[11.3.1.0^3,7] heptadeca-1(16),3,6,13(17),14-pentaene]
